Reference: US10882865B2, “Pyrrolopyrimidine compounds and uses thereof for modulating glucocerebrosidase activity” (Northwestern University, priority 2018, dated 2021)

Target: T1, glucocerebrosidase (GCase) (Homo sapiens, UniProt P04062)
T1 sequence (P04062 40-536): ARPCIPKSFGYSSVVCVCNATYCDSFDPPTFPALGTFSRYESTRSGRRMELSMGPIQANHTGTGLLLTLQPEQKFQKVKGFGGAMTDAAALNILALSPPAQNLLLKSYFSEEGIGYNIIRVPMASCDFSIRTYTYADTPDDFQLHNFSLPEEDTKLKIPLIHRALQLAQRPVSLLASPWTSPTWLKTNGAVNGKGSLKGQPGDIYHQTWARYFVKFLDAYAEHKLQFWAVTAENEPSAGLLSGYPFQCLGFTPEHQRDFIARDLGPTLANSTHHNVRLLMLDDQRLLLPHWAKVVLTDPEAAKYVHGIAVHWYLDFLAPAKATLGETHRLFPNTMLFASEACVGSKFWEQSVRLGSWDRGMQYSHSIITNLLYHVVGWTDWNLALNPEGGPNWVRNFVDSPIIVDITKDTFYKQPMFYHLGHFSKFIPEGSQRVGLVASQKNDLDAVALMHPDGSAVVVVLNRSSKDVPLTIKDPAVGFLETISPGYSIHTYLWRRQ
Assay: Glucocerebrosidase activation (Table 1, Exemplary Compounds and Activities)
Assay type: biochemical
Conditions: activation of glucocerebrosidase; for Emax: read-out: Maximum Activation (Emax)
Source text: The compounds disclosed herein preferably modulate activity of glucocerebrosidase. Modulation may include inhibiting or decreasing glucocerebrosidase activity. Modulation also may include activating or increasing glucocerebrosidase activity. Glucocerebrosidase activity may be assessed utilizing methods known in the art and the methods disclosed herein, including the methods disclosed in the Examples provided herein. In some embodiments, the compounds decrease or increase glucocerebrosidase activity relative to a control (e.g., by at least about 10%, 20%, 30%, 40%, 50%, 60%, 70%, 80%, 90%, 100%, 200%, 300%, 400%, 500%, 600%, 700%, 800%, 900%, 1000% or more (or within a range bounded by any of these values)). In other embodiments, the compounds activate glucocerebrosidase greater than about 2-fold, 3-fold, 4-fold, 5-fold, 10-fold, 20-fold, 30-fold, 40-fold, 50-fold, 60-fold, 70-fold, 80-fold, 90-fold, or 100-fold, relative to a control. […] In other embodiments, an AC50 value for the compound in regard to activation of glucocerebrosidase may be determined and preferably the compound has an AC50 value of less than about 10 μM, 5 μM, or 1 μM, 0.5 μM, 0.1 μM, 0.05 μM, 0.01 μM, 0.005 μM, or 0.001 μM (or within a range bounded by any of these values).
Methods for measuring glucocerebrosidase activity are known in the art. (See, e.g., U.S. Publication No. 2017/0001976 and U.S. Publication No. 2017/0002013 and Zheng et al. “Design and Synthesis of Potent Quinazolines as Selective β-Glucocerebrosidase Modulators, J. Med. Chem. 2016 September 22; 59(18): 8508-8520; the contents of which are incorporated herein by reference in their entireties).
The disclosed pyrrolopyrimidine compounds were synthesized and tested using the methods described below. Additional methods for synthesizing and testing pyrrolopyrimidine compounds are described in the art. (See, e.g., Zheng et al., β-Glucocerebrosidase Modulators Promote Dimerization of β-Glucocerebrosidase and Reveal an Allosteric Binding Site, J. Am. Chem. Soc., 2018, 140 (18), pp 5914-5924; and U.S. Pat. No. 9,802,942; the contents of which are incorporated herein by reference in their entireties).

SMILES	AC50	Emax
COC(=O)Cc1cccc(NC(=O)c2ccn3c(C)cc(C)nc23)c1 [compound 1]	6.59 µM	450%
Cc1cc(C)n2ccc(C(=O)Nc3cccc(CC(=O)O)c3)c2n1 [compound 2]	30 µM	550%
Cc1cc(C)n2ccc(C(=O)Nc3cccc(CC(=O)ON4C(=O)CCC4=O)c3)c2n1 [compound 3, 2,5-dioxopyrrolidin-1-yl 2-(3-(2,4-dimethylpyrrolo[1,2-a]pyrimidine-8-carboxamido)phenyl)acetate]	9.09 µM	500%
CCOC(=O)c1cccc(NC(=O)c2ccn3c(C)cc(C)nc23)c1 [compound 4]	1.18 µM	400%
Cc1cc(C)n2ccc(C(=O)Nc3cccc(C(=O)O)c3)c2n1 [compound 5]	2.87 µM	175%
Cc1cc(C)n2ccc(C(=O)Nc3cccc(C(=O)ON4C(=O)CCC4=O)c3)c2n1 [compound 6]	4.59 µM	460%
Cc1cc(C)n2ccc(C(=O)Nc3cccc(N)c3)c2n1 [compound 7]	3.39 µM	210%
Cc1cc(C)n2ccc(C(=O)Nc3cccc(NC(=O)CCl)c3)c2n1 [compound 8]	3.43 µM	480%
Cc1cc(C)n2ccc(C(=O)Nc3cccc(C(C)C)c3)c2n1 [compound 9]	2.23 µM	280%
Cc1cc(C)n2ccc(C(=O)Nc3cccc4c3CCC4)c2n1 [compound 10]	0.77 µM	202%
Cc1cc(C)n2ccc(C(=O)Nc3cccc4c3CCCC4)c2n1 [compound 11]	1.41 µM	400%
Cc1cc(C)n2ccc(C(=O)Nc3cccc(CC(C)C)c3)c2n1 [compound 12]	3.44 µM	300%
COC(=O)CCc1ccc(NC(=O)c2ccn3c(C)cc(C)nc23)cc1 [compound 13]	0.63 µM	180%
C=CC(=O)Nc1cccc(NC(=O)c2ccn3c(C)cc(C)nc23)c1 [compound 14]	6.46 µM	–
Cc1cc(C)n2ccc(C(=O)Nc3ccc(CCC(=O)O)cc3)c2n1 [compound 15]	36.6 µM	700%
Cc1cc(C)n2ccc(C(=O)Nc3ccc4c(c3)C(=O)CC4)c2n1 [compound 16]	1.49 µM	225%
Cc1cc(C)n2ccc(C(=O)Nc3ccc4c(c3)C(=O)CCC4)c2n1 [compound 17]	3.88 µM	750%
CCOC(=O)c1ccc(NC(=O)c2ccn3c(C)cc(C)nc23)cc1 [compound 19]	0.71 µM	250%
CCOC(=O)Cc1ccc(NC(=O)c2ccn3c(C)cc(C)nc23)cc1 [compound 20]	6.1 µM	550%
Cc1cc(C)n2ccc(C(=O)Nc3ccc(C(=O)O)cc3)c2n1 [compound 21]	35.5 µM	622%
Cc1cc(C)n2ccc(C(=O)Nc3ccc(CC(=O)O)cc3)c2n1 [compound 22]	35.5 µM	429%
Cc1cc(C)n2ccc(C(=O)NCC3COc4ccccc4O3)c2n1 (stereo not shown) [compound 23]	28.2 µM	644%
Cc1cc(C)n2ccc(C(=O)Nc3ccc4c(c3)CCCC4)c2n1 [compound 24]	3.55 µM	527%
Cc1cc(C)n2ccc(C(=O)Nc3ccc4c(c3)COC4)c2n1 [compound 25]	7.94 µM	456%

SMILES	AC50	Emax
Cc1cc(C)n2ccc(C(=O)Nc3ccc4c(c3)CCC4)c2n1 [compound 26]	1.12 µM	290%
Cc1cc(C)n2ccc(C(=O)Nc3ccc(CCC(=O)ON4C(=O)CCC4=O)cc3)c2n1 [compound 27]	2.82 µM	620%
Cc1cc(C)n2ccc(C(=O)Nc3ccc(C(=O)ON4C(=O)CCC4=O)cc3)c2n1 [compound 28]	50 µM	115%
Cc1cc(C)n2ccc(C(=O)Nc3ccc(CC(=O)ON4C(=O)CCC4=O)cc3)c2n1 [compound 29]	4.47 µM	374%
Cc1cc(C)n2ccc(C(=O)Nc3ccc4c(c3)CCO4)c2n1 [compound 30]	1.12 µM	198%
Cc1cc(C)n2ccc(C(=O)Nc3ccc4c(c3)CCCC4=O)c2n1 [compound 31]	1 µM	355%
Cc1cc(C)n2ccc(C(=O)Nc3c(C)nn(Cc4ccccc4)c3C)c2n1 [compound 33]	39.8 µM	914%
COC(=O)CCc1cccc(NC(=O)c2ccn3c(C)cc(C)nc23)c1 [compound 34]	3.55 µM	578%
Cc1cc(C)n2ccc(C(=O)Nc3ccccc3Oc3ccccc3)c2n1 [compound 35]	2.24 µM	298%
Cc1cc(C)n2ccc(C(=O)Nc3cccc(Oc4ccccc4)c3)c2n1 [compound 36]	1.42 µM	280%
Cc1cc(C)n2ccc(C(=O)Nc3cccc(CCC(=O)O)c3)c2n1 [compound 37]	8.91 µM	427%
Cc1cc(C)n2ccc(C(=O)Nc3cccc(CCC(=O)ON4C(=O)CCC4=O)c3)c2n1 [compound 38]	4.47 µM	810%
COC(=O)Cc1cc(NC(=O)c2ccn3c(C)cc(C)nc23)ccc1-c1cn(CCOCCOCCO)nn1 [compound 39]	10 µM	–
COC(=O)Cc1cc(NC(=O)c2ccn3c(C)cc(-c4cccnc4)nc23)ccc1-c1cn(CCOCCOCCO)nn1 [compound 40]	4.47 µM	–
Cc1cc(C)n2ccc(C(=O)Nc3ccc(-c4cn(CCOCCOCCO)nn4)c(CC(=O)O)c3)c2n1 [compound 41]	28.2 µM	–
Cc1cc(C)n2ccc(C(=O)NCc3ccccc3CNC(=O)c3ccn4c(C)cc(C)nc34)c2n1 [compound 42]	5 µM	715%
Cc1cc(C)n2ccc(C(=O)Nc3cccc(-c4ccccc4)c3)c2n1 [compound 43]	1.41 µM	296%
Cc1cc(C)n2ccc(C(=O)Nc3nc4c(s3)CCCC4)c2n1 [compound 44]	1.58 µM	342%
Cc1cc(C)n2ccc(C(=O)Nc3nc4c(s3)CC(C)CC4)c2n1 (stereo not shown) [compound 45]	1.78 µM	325%
Cc1cc(C)n2ccc(C(=O)Nc3nc4c(s3)CC(C)(C)CC4)c2n1 [compound 46]	1.12 µM	230%
CCOC(=O)Cc1cc(NC(=O)c2ccn3c(C)cc(C)nc23)ccc1CCCOCCOCCOCCOCCNC(=O)C1CCCCC1 [compound 48]	3.16 µM	796%
Cc1cc(C)n2ccc(C(=O)Nc3ccc(CCCOCCOCCOCCOCCNC(=O)C4CCCCC4)c(CC(=O)ON4C(=O)CCC4=O)c3)c2n1 [compound 49]	3.55 µM	–
Cc1cc(C)n2ccc(C(=O)Nc3cccc(CC(=O)Oc4ccccc4)c3)c2n1 [compound 50]	4.47 µM	230%
Cc1cc(C)n2ccc(C(=O)Nc3cccc(CC(=O)Oc4ccc([N+](=O)[O-])cc4)c3)c2n1 [compound 51]	10 µM	172%
